The results in this text go back to patent US7208466B1 (priority 1999, dated 2007).

Each structure is given as a SMILES string.

The subject of the assay is mice. The note with it: mouse, in vivo.

Regarding `CN1CC[C@]23c4c5ccc(O)c4O[C@H]2[C@@H](O)C=C[C@H]3[C@H]1C5` [morphine], the “period over which effect declines / returns to control levels” value worked out at 5 h and the “time of maximal effect” value was determined as 1 h.
